This is an account of results in patent US11000542B2, “Treatment and prevention of the common cold using povidone-iodine” (FIREBRICK PHARMA LIMITED, priority 2014, dated 2021).

The test system of data set [1] is colds due to picornaviruses. The note with it: cited from earlier work.
A short description of data set [2]: Intranasal tolerability of aqueous PVP-I preparations (inventors' finding). Format: in vivo, human. Conditions: repeated, frequent use. The source says: With respect to the intranasal tolerability of PVP-I, as distinct from ciliotoxicity, the present inventors have discovered that when the concentration of PVP-I in aqueous preparations is greater than 1.0%, the preparation may be irritating to the nasal mucosa in some individuals and not suitable for repeated, frequent and general use, as would be required in the effective treatment or prevention of the common cold. On this consideration, a preferred composition for nasal use is a concentration of PVP-I at or below 1.0%.

A further data set deals with human rhinovirus (HRV). The note with it: cited from earlier work.
A further data set deals with human influenza virus. Conditions: very low concentrations; Reimer et al (2002); cited from earlier work.
The next data set concerns adenovirus. Conditions: Reimer et al (2002), Wutzler et al (2002); cited from earlier work.
The subject of data set [3] is herpes simplex virus (HSV). The note with it: Wutzler et al (2002); cited from earlier work.
The test system of the next data set is nasal cilia. The note with it: Kramer et al (2002), cited from earlier work.
For a further data set, the system named is granulocytes. The note with it: Van den Broek et al (1982); cited from earlier work.
The subject of another data set is monocytes. Conditions: Van den Broek et al (1982); cited from earlier work.
A further data set concerns common cold. Conditions: throat gargle; cited from earlier work.
For data set [4] the following is noted: typical; cited from earlier work.

Turning to `Cc1cc(CCCOc2c(C)cc(-c3noc(C(F)(F)F)n3)cc2C)on1` [pleconaril], the “cytochrome P450 induction” value in data set [1] (FDA Advisory Committee review of 2002 NDA) was “a risk of cytochrome P450 induction”. Further, the “reduction in cold duration” value in data set [1] (Phase III data) is listed as “one”. In addition, in [1] (phase three study, Hayden et al (2003)), the “Time to Alleviation of Illness (TAI), cold duration” value is 6.3 days.

In the case of povidone-iodine [PVP-I], the “PVP-I concentration in aqueous preparations that may be irritating to the nasal mucosa in some individuals” value in [2] is listed as “greater than 1.0%”. Further, the “log reduction in HRV” value in the data set with human rhinovirus (HRV) (30 second exposure, Wutzler et al (2002)) was 1.1 log. In addition, the “reduction in viable virus count” value in the data set with human rhinovirus (HRV) (30 seconds exposure, any concentration, Reimer et al (2002)) is roughly 1 log. Besides, the “exposure required for a 4 log reduction (microbicidal effect)” value is reported as 30 minutes in the data set on human rhinovirus (HRV) (in vitro, Reimer et al (2002), Wutzler et al (2002)) and 5 minutes with adenovirus. Besides, in the data set with human rhinovirus (HRV) (maximum exposure period tested 10 minutes, Kawana et al (1997)), the “microbicidal effect against HRV” value is recorded as “failed to produce a microbicidal effect against HRV”. The “exposure for a 4 log10 reduction in viable virus count” value with human influenza virus is no more than 30 second. In addition, the “exposure for a microbicidal effect (4 log reduction)” value in [3] is given as 30 seconds. The “PVP-I concentration toxic to the nasal cilia (ciliotoxic)” value in the data set with nasal cilia (Reimer et al (2002): complete loss of ciliary function) was no less than 2.5%. For the same compound, in the data set with nasal cilia (Reimer et al (2002)), the “PVP-I concentration not ciliotoxic / suitable for use in the nose” value was no more than 1.25%. In addition, the “PVP-I concentration at which virtually all granulocytes destroyed” value in the data set on granulocytes is listed as “above 0.1%”. In addition, the “PVP-I concentration significantly reducing the viability of granulocytes” value in the data set on granulocytes was “above 0.05%”. In addition, the “PVP-I concentration substantially degrading monocytes” value in the data set on monocytes is “above 0.1%”. In the data set with common cold, the “effect of gargling on cold symptoms and incidence” value is “no significant effect on nasal cold symptoms or bronchial complications, and no benefit in terms of reducing the incidence of the common cold”. In [4], the “free iodine in PVP-I solutions” value was “less than 30 ppm”.
